Like-named read-outs stand apart in the source and are kept apart here.
Legend:
[1] = tested on: T. foetus trophozoites; experiment: Example 1: T. foetus trophozoites in culture tubes, surviving organisms counted by hemocytometer, re-culture at 12 hours; format: cell-based, Tritrichomonas foetus; conditions: for inhibition of parasite growth: PO 75 mg mL^-1, OX 50 mg mL^-1, compound alone; for reduction in motile organisms: after 2 hours of culture, compound alone; for motile organisms after re-culture: re-culture at 12 hours, examination at 24 hours
Protocol: (§1) Experiments were performed in vitro using pure cultures of T. foetus trophozoites with the addition of i) an antiprotozoal compound alone or ii) a veterinary formulation comprising an antiprotozoal compound and a polymer. Samples were evaluated at predetermined time points using Neubauer hemocytometers (C-Chip® NanoEnTek Inc., Pleasanton, Calif.) to determine the number of viable organisms and the induction of the pseudocyst form. Cultures were tested for reversibility to the motile trophozoite form or replication of organisms.
(§2) The CDTf3 cloned strain of T. foetus was utilized for the instant examples. The parasites were cultivated in trypticase-yeast extract-maltose (TYM) Diamond's medium (DM) and supplemented with 10% heat-inactivated fetal bovine serum (Atlanta Biologics, Norcross, Ga.) at 37° C. for 24-48 hours until adequate numbers of trichomonads were present to perform the required number of replications. Following culture, T. foetus organisms were washed and re-suspended in 1 mL of sterile phosphate buffered saline (PBS) and then inoculated into 15 mL conical tubes (BD Falcon, Franklin Lakes, N.J.) or tissue culture wells (Sarstedt, Inc., Newton, N.C.) containing DM.
Trophozoites (3.75×10^5 mL^−1) were washed in PBS (VWR, Radnor, Pa.) and inoculated into 10 mL of fresh DM. At time 0, each of the following treatment groups was added to culture tubes: Group 1) control: 0.5 mL DM; Group 2) 0.5 mL pluronic lecithin organogel (PLO; Pluronic F127); Group 3) 75 mg ponazuril (PO) (0.5 mL); Group 4) 50 mg oxibendazole (OX) (0.5 mL); Group 5) 37.5 mg PO (0.25 mL)+0.25 mL PLO; and Group 6) 25 mg OX (0.25 mL)+0.25 mL PLO.
PLO (Pluronic F127 Letco Medical, Decatur, Ala.) was combined with OX (Anthelcide EQ® Zoetis, Florham Park, N.J.) or PO (Marquis® Merial, Duluth, Ga.) paste formulations by shear force, syringe-to-syringe-blending using two luer-lock syringes and a rapid fill connector (Baxter, Inglewood, Calif.). Each treatment was applied to conical culture tubes in 5 replicates. Following growth at 37° C., samples were taken every 2 hours for a total of 12 hours, and the tubes were vortexed prior to removal of a 20 μL sample. From these samples, the surviving organisms were counted utilizing disposable Neubauer hemocytometers (C-Chip® NanoEnTek Inc., Pleasanton, Calif.). At 12 hours post-treatment, each formulation was recultured in fresh DM without antiprotozoal compound and evaluated microscopically daily for the presence of T. foetus organisms in culture. These assays were performed in order to evaluate if the effects exerted by the antiprotozoal compounds could be reversed.

[2] = tested on: T. foetus trophozoites; experiment: Example 3: T. foetus trophozoites in tissue culture wells, 5 passages (120 hours), re-emergence of organisms; format: cell-based, Tritrichomonas foetus; conditions: for subsequent cultures: over a 5 day period
Protocol: as §1, §2
Trophozoites (5×10^4 mL^−1) were cultured as described above and added to all tissue culture wells along with 3 mL of DM for a total volume of 4 mL of DM with 50,000 organisms per well. At time 0, each of the following treatment groups were added to tissue culture wells as follows: Group 1) positive control 4 mL DM; Group 2) negative control 4 mL 70% ethanol (EtOH); Group 3) 150 mg oxfendazole solution (OXF) (1 mL)+2 mL Velvachol (VC)+1 mL PLO; Group 4) 150 mg OXF (1 mL)+3 mL VC; Group 5) 150 mg OXF (1 mL)+3 mL EtOH; Group 6) 150 mg OXF (1 mL)+2 mL EtOH+1 mL PLO; Group 7) 1 mL EtOH+2 mL VC+1 mL PLO; Group 8) 1 mL EtOH+3 mL VC; Group 9) 3 mL EtOH+1 mL PLO; Group 10) 4 mL EtOH; Group 11) 4 mL VC; Group 12) 150 mg oxfendazole dissolved in 4 mL 99% DMSO; and Group 13) 4 mL 99% DMSO.
The OXF (U.S. Pharmacopeial Convention Rockville, Md.) stock solution was made in EtOH (Humco Texarkana, TX) and stored at 150 mg mL^−1, with the exception of Formulation 13 which included OXF dissolved in 99% DMSO (VedCo, Saint Joseph, Mo.). The combinations of PLO (Pluronic F127 Letco Medical, Decatur, Ala.), VC (Valeant North America LLC, Bridgewater, N.J.), EtOH (Humco Texarkana, TX), and OXF stock solution were mixed as described above.
Each treatment was applied to tissue culture wells in duplicate. Following culture as described in Example 2, samples were collected every 8 hours for a total of 24 hours and counted as previously described. At 24 hours post-treatment and following counting of organisms, each formulation was removed from the tissue culture well and centrifuged at 4000 g for 10 minutes. The supernatant was removed and placed in a labeled vial for evaluation of drug concentration at a later time. The pellet was re-suspended in 4 mL of DM and placed once again in a tissue culture well before being re-incubated at 37° C. This process was repeated every 24 hours for 5 passages (120 hours) to allow for re-emergence of any organisms. Assays were continued to be microscopically examined during this period for the presence of T. foetus organisms in culture by counting of live organisms.

Compound	inhibition of parasite growth [1]	reduction in motile organisms [1] [%]	motile organisms after re-culture [1]	surviving organisms / form seen, 8 hours post-incubation [2]	surviving organisms / form seen, 16 hours post-incubation [2]	surviving organisms / form seen, 24 hours post-incubation [2]	surviving organisms / form seen, 48 hours post-incubation [2]	surviving organisms / form seen, 72 hours post-incubation [2]	surviving organisms / form seen, 96 hours post-incubation [2]	surviving organisms / form seen, 120 hours post-incubation [2]	death of trophozoites ([2]; listed as 99% DMSO)	subsequent cultures [2]	death of trophozoites [2]
Cc1cc(-n2c(=O)[nH]c(=O)n(C)c2=O)ccc1Oc1ccc(S(=O)(=O)C(F)(F)F)cc1 [PO, 1-Methyl-3-(3-methyl-4-(4-((trifluoromethyl)sulfonyl)phenoxy)phenyl)-1,3,5-triazinane-2,4,6-trione]	significantly inhibited parasite growth	98	reestablishment of motile organisms was observed										
CCCOc1ccc2nc(NC(=O)OC)[nH]c2c1 [OX, methyl (5-propoxy-1H-benzimidazol-2-yl)carbamate]	significantly inhibited parasite growth	98	reestablishment of motile organisms was observed										
C[S+](C)[O-] [DMSO]				dead trophs	dead trophs	dead trophs	dead trophs	dead trophs	no cells	no cells	capable of inducing death of trophozoites	negative cultures	
CCO [EtOH, ethanol]				dead trophs	dead trophs	dead trophs	dead trophs	dead trophs	no cells	no cells		negative cultures	capable of inducing death of trophozoites
